Source: patent US11229618B2 (Amarin Pharmaceuticals Ireland Limited, priority 2012, dated 2022)

Test: AAMI 6-week study: essential fatty acid parameters in RBC (gas chromatography)
Type: in vivo, human
Details: for AA RBC Mean change from Baseline / DHA RBC Mean change from Baseline / AA RBC 1 or 2 g versus 4 g LS Mean / DHA RBC 1 or 2 g versus 4 g LS Mean: AAMI; for AA RBC Mean change from Baseline / DHA RBC Mean change from Baseline: mean (SD); for DGLA 1 or 2 g versus 4 g, LS Mean / DPAn-3 1 or 2 g versus 4 g, LS Mean / EPA/AA 1 or 2 g versus 4 g, LS Mean / DGLA Mean change from Baseline, Mean (SD) / DPAn-3 Mean change from Baseline, Mean (SD) / EPA/AA Mean change from Baseline, Mean (SD) / DGLA Baseline Mean (SD) / DPAn-3 Baseline Mean (SD) / EPA/AA Baseline Mean (SD): RBC
Experimental: A single-center, 6-week, double-blind, randomizes, parallel-group, placebo-controlled, dose-ranging pilot study was performed to evaluate the efficacy, tolerability, and safety of >96% ethyl-EPA in subjects with subjective and objective memory impairment according to generally accepted criteria for Age-Associated Memory Impairment (“AAMI”). The primary objective of the study was to determine the effect of >96% ethyl-EPA 1 g, 2 g, and 4 g daily, compared to placebo, on cognitive performance in subjects with AAMI.
Ninety-four subjects were randomized into one of six groups: 1 g E-EPA daily (n=23), 2 g E-EPA daily (n=24), 4 g E-EPA daily (n=24), 1 g placebo daily (n=7), 2 g placebo daily (n=8), and 4 g placebo daily (n=8). E-EPA was provided as 500 mg soft gel capsules containing>96% E-EPA and 0.2% dl-α-tocopherol as an antioxidant. Placebo capsules contained 467 mg of liquid paraffin and 0.2% dl-α-tocopherol. Ninety-one subjects completed the study. Two subjects in the 2 g E-EPA group and one subject in the 2 g placebo group discontinued the study.
Blood samples (10 mL) were collected at Visit 1 (screening) and at Visits 4, 5 and 6. Analysis was performed by MSR Lipid Analysis, Scottish Crop Research Institute, Dundee, UK. The screening sample acted as baseline for the EFA measurements. Lipid was extracted from plasma, serum and RBC suspensions and converted into fatty acid methyl esters which were analyzed by gas chromatography to give fatty acid profiles as micrograms fatty acid per gram of sample (μgFA/g) and normalized area percent.
RBC and plasma EFA data were collected at baseline, Day 14, 28 and 42 and summarized by visit for each treatment group. Change from baseline and percent change from baseline were also summarized. ANCOVA comparison of ethyl-EPA dose groups and ethyl-EPA versus placebo was performed.

[1] = Ethyl-EPA 1 g versus 4 g, p-value <0.001

For `CC/C=C\C/C=C\C/C=C\C/C=C\C/C=C\CCCC(=O)OCC` [IPE, all-cis eicosa-5,8,11,14,17-pentaenoic acid ethyl ester], the “AA RBC Mean change from Baseline” value (1 g daily, Day 14) was −8.1 (21.95) μg/g, the “DHA RBC Mean change from Baseline” value (1 g daily, Day 14) was −4.6 (9.76) μg/g and the “AA RBC Mean change from Baseline” value (1 g daily, Day 28) was −17.0 (20.69) μg/g. For the same compound, the “DHA RBC Mean change from Baseline” value (1 g daily, Day 28) was −6.4 (11.57) μg/g, the “AA RBC Mean change from Baseline” value (1 g daily, Day 42) was −14.2 (27.69) μg/g and the “DHA RBC Mean change from Baseline” value (1 g daily, Day 42) was −7.0 (12.20) μg/g. For the same compound, the “AA RBC 1 or 2 g versus 4 g LS Mean” value (1 g versus 4 g) was 8.4 µg/g, the “DHA RBC 1 or 2 g versus 4 g LS Mean” value (1 g versus 4 g) was 1.0 µg/g and the “AA RBC Mean change from Baseline” value (2 g daily, Day 14) was −3.1 (25.84) μg/g. The “DHA RBC Mean change from Baseline” value (2 g daily, Day 14) was −2.0 (9.46) μg/g, the “AA RBC Mean change from Baseline” value (2 g daily, Day 28) was −14.1 (26.89) μg/g and the “DHA RBC Mean change from Baseline” value (2 g daily, Day 28) was −6.2 (9.34) μg/g. The “AA RBC Mean change from Baseline” value (2 g daily, Day 42) was −18.8 (25.62) μg/g, the “DHA RBC Mean change from Baseline” value (2 g daily, Day 42) was −6.3 (9.42) μg/g and the “AA RBC 1 or 2 g versus 4 g LS Mean” value (2 g versus 4 g) was 9.8 µg/g. For the same compound, the “DHA RBC 1 or 2 g versus 4 g LS Mean” value (2 g versus 4 g) was 1.0 µg/g, the “AA RBC Mean change from Baseline” value (4 g daily, Day 14) was −15.7 (26.76) μg/g and the “DHA RBC Mean change from Baseline” value (4 g daily, Day 14) was −6.9 (9.13) μg/g. The “AA RBC Mean change from Baseline” value (4 g daily, Day 28) was −22.8 (29.56) μg/g, the “DHA RBC Mean change from Baseline” value (4 g daily, Day 28) was −8.7 (11.63) μg/g and the “AA RBC Mean change from Baseline” value (4 g daily, Day 42) was −34.4 (31.44) μg/g. For the same compound, the “DHA RBC Mean change from Baseline” value (4 g daily, Day 42) was −13.8 (13.76) μg/g, the “DGLA 1 or 2 g versus 4 g, LS Mean” value (Ethyl-EPA 1 g versus 4 g, p-value 0.027) was 1.5 µg/g and the “DPAn-3 1 or 2 g versus 4 g, LS Mean” value [1] was -6.2 µg/g. For the same compound, the “EPA/AA 1 or 2 g versus 4 g, LS Mean” value [1] was −0.18, the “DGLA Mean change from Baseline, Mean (SD)” value (“DGLA Mean change … (SD)” for short) (Ethyl-EPA 1 g, Day 14) was −2.7 (3.82) μg/g and the “DPAn-3 Mean change from Baseline, Mean (SD)” value (from here on “DPAn-3 Mean change … (SD)”) (Ethyl-EPA 1 g, Day 14) was 0.9 (5.03) μg/g. The “EPA/AA Mean change from Baseline, Mean (SD)” value (“EPA/AA Mean change … (SD)” below) (Ethyl-EPA 1 g, Day 14) was 0.1 (0.04), the “DGLA Mean change … (SD)” value (Ethyl-EPA 1 g, Day 28) was −3.8 (3.31) μg/g and the “DPAn-3 Mean change … (SD)” value (Ethyl-EPA 1 g, Day 28) was 3.3 (5.42) μg/g. The “EPA/AA Mean change … (SD)” value (Ethyl-EPA 1 g, Day 28) was 0.1 (0.05), the “DGLA Mean change … (SD)” value (Ethyl-EPA 1 g, Day 42) was −3.5 (4.51) μg/g and the “DPAn-3 Mean change … (SD)” value (Ethyl-EPA 1 g, Day 42) was 6.5 (6.19) μg/g. The “EPA/AA Mean change … (SD)” value (Ethyl-EPA 1 g, Day 42) was 0.1 (0.06), the “DGLA Baseline Mean (SD)” value (Ethyl-EPA 1 g) was 23.0 (5.19) μg/g and the “DPAn-3 Baseline Mean (SD)” value (Ethyl-EPA 1 g) was 34.1 (5.43) μg/g. The “EPA/AA Baseline Mean (SD)” value (Ethyl-EPA 1 g) was 0.1 (0.07), the “DPAn-3 1 or 2 g versus 4 g, LS Mean” value (Ethyl-EPA 2 g versus 4 g, p-value 0.002) was -2.5 µg/g and the “DGLA 1 or 2 g versus 4 g, LS Mean” value (Ethyl-EPA 2 g versus 4 g, p-value 0.032) was 1.5 µg/g. The “EPA/AA 1 or 2 g versus 4 g, LS Mean” value (Ethyl-EPA 2 g versus 4 g, p-value <0.001) was −0.11, the “DGLA Mean change … (SD)” value (Ethyl-EPA 2 g, Day 14) was −2.6 (3.54) μg/g and the “DPAn-3 Mean change … (SD)” value (Ethyl-EPA 2 g, Day 14) was 5.6 (6.28) μg/g. The “EPA/AA Mean change … (SD)” value (Ethyl-EPA 2 g, Day 14) was 0.2 (0.04), the “DGLA Mean change … (SD)” value (Ethyl-EPA 2 g, Day 28) was −4.5 (3.58) μg/g and the “DPAn-3 Mean change … (SD)” value (Ethyl-EPA 2 g, Day 28) was 9.4 (6.74) μg/g. For the same compound, the “EPA/AA Mean change … (SD)” value (Ethyl-EPA 2 g, Day 28) was 0.02 (0.06), the “DGLA Mean change … (SD)” value (Ethyl-EPA 2 g, Day 42) was −5.3 (3.65) μg/g and the “DPAn-3 Mean change … (SD)” value (Ethyl-EPA 2 g, Day 42) was 13.2 (7.23) μg/g. The “EPA/AA Mean change … (SD)” value (Ethyl-EPA 2 g, Day 42) was 0.3 (0.06), the “DGLA Baseline Mean (SD)” value (Ethyl-EPA 2 g) was 23.0 (5.76) μg/g and the “DPAn-3 Baseline Mean (SD)” value (Ethyl-EPA 2 g) was 33.2 (4.51) μg/g. For the same compound, the “EPA/AA Baseline Mean (SD)” value (Ethyl-EPA 2 g) was 0.1 (0.06), the “DGLA Mean change … (SD)” value (Ethyl-EPA 4 g, Day 14) was −5.3 (4.10) μg/g and the “DPAn-3 Mean change … (SD)” value (Ethyl-EPA 4 g, Day 14) was 5.4 (5.38) μg/g. For the same compound, the “EPA/AA Mean change … (SD)” value (Ethyl-EPA 4 g, Day 14) was 0.3 (0.07), the “DGLA Mean change … (SD)” value (Ethyl-EPA 4 g, Day 28) was −7.1 (4.63) μg/g and the “DPAn-3 Mean change … (SD)” value (Ethyl-EPA 4 g, Day 28) was 12.4 (6.98) μg/g. For the same compound, the “EPA/AA Mean change … (SD)” value (Ethyl-EPA 4 g, Day 28) was 0.4 (0.11), the “DGLA Mean change … (SD)” value (Ethyl-EPA 4 g, Day 42) was −8.0 (4.98) μg/g and the “DPAn-3 Mean change … (SD)” value (Ethyl-EPA 4 g, Day 42) was 16.2 (10.07) μg/g. For the same compound, the “EPA/AA Mean change … (SD)” value (Ethyl-EPA 4 g, Day 42) was 0.4 (0.14), the “DGLA Baseline Mean (SD)” value (Ethyl-EPA 4 g) was 24.0 (5.77) μg/g and the “DPAn-3 Baseline Mean (SD)” value (Ethyl-EPA 4 g) was 34.5 (4.34) μg/g. For the same compound, the “EPA/AA Baseline Mean (SD)” value (Ethyl-EPA 4 g) was 0.1 (0.04).
